The target in one assay is ErbB4 (Homo sapiens, UniProt Q15303). The following applies: cited from earlier work; for Affinity and selectivity for ErbB4 versus EGFR: pan-ErbB inhibitors; for Inhibition of ErbB4 (affinity): ref. 77 for JNJ.
Assay [1] deals with DN prone miR-146a KO animals. The assay is described as follows: STZ-induced diabetic nephropathy in miR-146a KO animals, albuminuria. It is filed as in vivo, mouse. The following applies: miR-146a KO + STZ mice, 70 mg/kg I.P. daily from 4 weeks post-STZ. The procedure: We investigated the role of miR-146 in diabetic nephropathy (DN) using the miR-146a KO animals and a DN mouse model. Streptozotocin (STZ) treatment (125 mg/kg, two doses 3 days apart) induced similar levels of hyperglycemia in both WT and miR146a KO animals (FIG. 7).
To determine if inhibiting ErbB4 using ErbB4 erlotinib would be beneficial and protect animals from DN, we administered Erlotinib (70 mg/kg in saline/Kolliphor, Tween, I.P., daily) in DN prone miR-146a KO animals starting at 4 weeks post-STZ.

In assay [2] the test system is WT and miR-146a KO DN mice. The assay is described as follows: TEM of kidney sections for podocyte foot process effacement after STZ. The format is in vivo, mouse. The protocol: We also analyzed the kidney sections using transmission electron microscopy (TEM) to determine if erlotinib treatment provided protection of podocytes from foot process effacement. TEM was performed according to the standard protocols (Sever, S. et al. J Clin. Invest. 117, 2095-2104 (2007)).

A further assay has as its system podocytes. The assay is described as follows: Podocytes treated with TGFβ and co-treated with ErbB4 inhibitor (qRT-PCR, immunofluorescence). It is filed as cell-based, mouse. The following applies: podocytes treated with TGFb plus inhibitor, 2 h. The protocol:
FIG. 5A is a bar graph showing qRT-PCR based analysis of levels of various RNAs in podocytes cultured in normal glucose (5 mM) v/s treatment with HG (30 mM) for 2 h or 24 h (Notch-1). FIG. 5B is a bar graph showing qRT-PCR based analysis of levels of various RNAs in podocytes cultured in normal media or treated with TGFb in the absence or presence of ErbB4 inhibitor (JNJ) for 2 h. FIG. 5C provides representative immunofluorescence images showing podocytes cultured in normal media or treated with TGFb in the absence or presence of ErbB4 inhibitor (JNJ) for 2 h and stained for paxillin, synpo or ErbB4.
Background: In qPCR the cycle at which signal appears reflects the starting amount.

Sequence of ErbB4 (Q15303 26-1308): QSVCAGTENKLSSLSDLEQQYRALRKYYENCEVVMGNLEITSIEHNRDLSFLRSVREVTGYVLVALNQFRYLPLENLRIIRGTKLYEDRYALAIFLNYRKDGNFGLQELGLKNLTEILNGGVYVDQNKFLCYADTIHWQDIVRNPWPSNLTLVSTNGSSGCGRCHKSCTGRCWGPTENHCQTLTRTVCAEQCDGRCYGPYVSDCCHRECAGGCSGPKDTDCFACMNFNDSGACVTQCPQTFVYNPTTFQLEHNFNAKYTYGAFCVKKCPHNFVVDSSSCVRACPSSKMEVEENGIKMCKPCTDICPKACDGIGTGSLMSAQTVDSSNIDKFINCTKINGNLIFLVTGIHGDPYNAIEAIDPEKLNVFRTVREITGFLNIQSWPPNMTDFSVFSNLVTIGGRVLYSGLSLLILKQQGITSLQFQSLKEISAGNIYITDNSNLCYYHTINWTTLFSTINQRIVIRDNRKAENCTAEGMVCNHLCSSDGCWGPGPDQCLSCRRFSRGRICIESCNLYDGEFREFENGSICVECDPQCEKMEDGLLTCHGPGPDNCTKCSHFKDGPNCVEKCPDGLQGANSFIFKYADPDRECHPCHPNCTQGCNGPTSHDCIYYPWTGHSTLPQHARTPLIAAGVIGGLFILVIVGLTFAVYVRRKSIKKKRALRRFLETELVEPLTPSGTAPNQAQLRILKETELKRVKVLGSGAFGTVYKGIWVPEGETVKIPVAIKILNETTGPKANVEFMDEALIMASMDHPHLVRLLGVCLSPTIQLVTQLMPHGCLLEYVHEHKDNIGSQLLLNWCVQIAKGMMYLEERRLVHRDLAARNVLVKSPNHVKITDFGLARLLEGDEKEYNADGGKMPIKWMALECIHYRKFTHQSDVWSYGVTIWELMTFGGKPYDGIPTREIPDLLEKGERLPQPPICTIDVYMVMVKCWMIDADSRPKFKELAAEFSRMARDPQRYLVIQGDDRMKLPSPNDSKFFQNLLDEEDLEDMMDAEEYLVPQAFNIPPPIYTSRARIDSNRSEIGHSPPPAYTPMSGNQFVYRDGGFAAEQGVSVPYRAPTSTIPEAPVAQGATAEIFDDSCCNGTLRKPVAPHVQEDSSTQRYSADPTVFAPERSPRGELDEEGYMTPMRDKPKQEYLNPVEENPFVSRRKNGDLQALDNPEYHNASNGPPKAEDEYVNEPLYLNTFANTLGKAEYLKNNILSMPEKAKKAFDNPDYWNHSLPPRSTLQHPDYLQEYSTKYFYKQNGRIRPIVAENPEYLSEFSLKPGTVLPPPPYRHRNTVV

Take `C#Cc1cccc(Nc2ncnc3cc(OCCOC)c(OCCOC)cc23)c1` [Erlotinib]: the “Affinity and selectivity for ErbB4 versus EGFR” value (from here on “Affinity and selectivity”) at ErbB4 was “high affinity and selectivity for ErbB4”. Further, the “Proteinuria (albuminuria)” value in assay [1] is “significantly reduced proteinuria (albuminuria)”. For the same compound, the “Podocyte foot process effacement (TEM)” value in assay [2] (WT mice after STZ) and in assay [2] (miR-146a KO DN mice) was “significantly reduced podocyte foot process effacement” in each case.

Turning to `CS(=O)(=O)CCNCc1ccc(-c2ccc3ncnc(Nc4ccc(OCc5cccc(F)c5)c(Cl)c4)c3c2)o1` [Lapatinib], on ErbB4, the “Affinity and selectivity” value is reported as “much more effective against EGFR v/s ErbB4”; the “Inhibition of ErbB4 (affinity)” value is reported as “only weakly effective on ErbB4”. In addition, the “Reversal of deleterious expression changes induced by TGFβ (mRNA and protein level)” value in the assay on podocytes is on record as “less effective”.

With `Cl.Nc1ncnc(Nc2ccc(OCc3ccccc3)c(Cl)c2)c1/C=N/OCCN1CCOCC1` [JNJ28871063], at ErbB4, the “Affinity and selectivity” value was “high affinity and selectivity for ErbB4”; the “Inhibition of ErbB4 (affinity)” value is “nanomolar affinity”. The “Reversal of deleterious expression changes induced by TGFβ (mRNA and protein level)” value with podocytes is recorded as “reversed the deleterious expression changes induced by TGFβ”.

On to `CNc1cc2c(Nc3cccc(Br)c3)ncnc2cn1` [PD158780], for which the “Affinity and selectivity” value at ErbB4 was “high affinity and selectivity for ErbB4”.

These data come from US20160304959A1, “COMPOSITIONS AND METHODS FOR TREATING DIABETIC NEPHROPATHY” (Rush University Medical Center, priority 2013, published 2016).
